US20260294874A1, “COMPOSITIONS COMPRISING MODULATORS OF RIBONUCLEOPROTEIN GRANULE FORMATION AND DISSOLUTION AND METHODS OF USE THEREOF” (University of Virginia Patent Foundation, priority 2023, published 2026)
Entries after “also recorded” stand apart in the source; their conditions may differ.

Tests used:
Type in all cases: cell-based
[1] = system: Tyr and Lys sites of HeLa and HEK293T proteomes; experiment: Proteome-wide competitive ABPP SILAC LC-MS/MS chemical proteomics of liganded Tyr/Lys sites; details: glucose-deprived HEK293T cells, 25 μM, 2 h
Procedure: (§1) Preparation of SILAC proteomes for LC-MS/MS analysis. SILAC cell proteomes were fractionated to collect the supernatant and normalized to 2.3 mg/mL in PBS. ‘Heavy’ and ‘light’ proteomes were aliquoted (427 μL) and probe-modified proteins were conjugated to desthiobiotin-PEG-3-azide using copper-catalyze azide-alkyne cycloaddition, trypsinized into peptides using Trypsin/Lys-C Mix (Catalog No. V5071; Promega Corporation, Madison, Wisconsin, United States of America), enriched using PIERCE™ Avidin Agarose brand beads (Catalog No. 20219; Thermo Fisher Scientific Inc., Waltham, Massachusetts. United States of America), and prepared for nano-electrospray ionization-LC-MS/MS analysis as previously described in Hahm et al., 2020.
(§2) Data Analysis—Chemical Proteomics. Identification and analysis of peptides and proteins using LC-MS was accomplished using bioinformatics software and quality control parameter protocols as previously described in Hahm et al., 2020.
(§3) We performed quantitative liquid-chromatography tandem mass spectrometry (LC-MS/MS) chemical proteomic studies to identify the target protein and binding site(s) of SuTEx fragments with RNP granule modulating activity. […]
(§4) We detected ~8,700 probe-modified sites (Tyr and Lys) in our aggregate HeLa and HEK293T chemical proteomic analyses. […]

[2] = target: T1, EDC3 Y475 (Homo sapiens, UniProt Q96F86); experiment: Competitive ABPP SILAC LC-MS/MS chemical proteomics, EDC3 Y475; details: glucose-deprived HEK293T cells, 25 μM, 2 h
T1 sequence (Q96F86 1-508): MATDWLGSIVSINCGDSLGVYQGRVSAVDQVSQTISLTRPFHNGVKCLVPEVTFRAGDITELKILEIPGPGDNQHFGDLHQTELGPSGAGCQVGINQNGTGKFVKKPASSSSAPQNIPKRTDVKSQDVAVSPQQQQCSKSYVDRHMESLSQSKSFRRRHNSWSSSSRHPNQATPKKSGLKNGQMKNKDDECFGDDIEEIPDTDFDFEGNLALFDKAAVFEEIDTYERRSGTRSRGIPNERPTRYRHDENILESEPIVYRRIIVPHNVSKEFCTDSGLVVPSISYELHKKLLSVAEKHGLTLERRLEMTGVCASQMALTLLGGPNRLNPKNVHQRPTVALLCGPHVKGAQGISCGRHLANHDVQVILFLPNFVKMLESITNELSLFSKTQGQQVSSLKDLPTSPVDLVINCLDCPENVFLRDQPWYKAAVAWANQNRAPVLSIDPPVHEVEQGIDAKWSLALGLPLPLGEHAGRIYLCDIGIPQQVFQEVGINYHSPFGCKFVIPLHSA
Procedure: as §1, §2
We performed quantitative liquid-chromatography tandem mass spectrometry (LC-MS/MS) chemical proteomic studies to identify the target protein and binding site(s) of SuTEx fragments with RNP granule modulating activity. […] SILAC light and heavy cells (HEK293T and HeLa) were treated with experimental conditions used for phenotypic screening including the SuTEx ligand pretreatment (25 μM, 2 h) followed by PB (glucose-deprivation, 15 min) and SG induction (75 μM [COMPOUND LEFT OUT], 30 min). Afterwards, cells were lysed, soluble proteomes treated with HHS-465 SuTEx probe (100 μM, 1 h), a global Tyr/Lys-reactive probe used previously for RNP granule investigations (Ciancone et al., 2022), and samples processed to probe-modified peptides for LC-MS/MS analysis as previously reported (Huang et al., 2021), shown in FIG. 10.
as §4

[3] = target: T2, HNRPK Y72 (Homo sapiens, UniProt P61978); experiment: Competitive ABPP SILAC LC-MS/MS chemical proteomics, HNRPK Y72
T2 construct: liganded site Y72
Procedure: as §1, §2, §3, §4

[4] = system: G3BP1 Y40E-rescued G3BP KO cells; experiment: SG formation in G3BP KO U20S cells rescued with G3BP1 Y40E; details: 25 μM, 2 h
Procedure: (§5) G3BP KO and rescue studies. U20S G3BP1/2 double knockout (G3BP KO) cell-line was a kind gift from the C. Brangwynne lab (Princeton University, Princeton, New Jersey, United States of America) and generated as previously described in Kedersha et al., 2016. G3BP KO cells were seeded at 9.0×10^4 in a 24-well plate with 12-mm glass coverslips. Next day, the cells were transfected with […] vectors with 1 μg/mL tetracycline and LIPOFECTAMINE™ 3000 brand transfection reagent according to the manufacturer's protocol (Thermo Fisher Scientific). 20 hours post-transfection, the cells were treated with 25 μM SuTEx probes for 2 hours in DMEM medium without FBS. The cells were then treated with 75 μM NaAsO2 for 30 minutes and fixed with 3% paraformaldehyde in PBS for 15 minutes at RT and washed with PBS twice. The same protocols for IF of HeLa cells and quantification of G3BP1-positive SGs described above were followed thereafter.
(§6) To determine whether the cell biological effects mediated by HHS-166 were Y40-dependent, we expressed recombinant G3BP1 WT or Y40 mutant in previously established G3BP1/2 double knockout U20S (G3BP KO) cells (Kedersha et al., 2016; Sanders et al., 2020) and evaluated the resulting effects on SG response to [COMPOUND LEFT OUT]. […]

[5] = system: G3BP1 Y40F-expressing G3BP KO cells; experiment: SG formation in G3BP KO U20S cells rescued with G3BP1 Y40F; details: 25 μM, 2 h
Procedure: as §5, §6

SMILES | number of reproducibly liganded sites in addition to EDC3 Y475 [1] | liganding of EDC3 Y475 (in words) [2] | SILAC ratio (SR), EDC3 Y475 ([2]; HHS-465 100 μM, DMSO (light)/ligand (heavy)) | liganding of HNRPK Y72 (in words) [3] | effect on SG formation (in words) [4] | effect on SG formation (in words) [5]
COc1ccc(S(=O)(=O)n2cc(CS(C)(=O)=O)nn2)cc1 [AHL-030, 1-((4-Methoxyphenyl)sulfonyl)-4-((methylsulfonyl)methyl)-1H-1,2,3-triazole] | 7 | localized AHL-030 site of binding to Y475; also recorded: liganded site (Y475) | > 2 |  |  | 
COc1ccc(S(=O)(=O)n2cc(C3CCCCC3)nn2)cc1 [HHS-166, 4-Cyclohexyl-1-((4-methoxyphenyl)sulfonyl)-111-1,2,3-triazole] |  |  |  | not | insensitive to HHS-166 treatment and lost and not Y40E- | lost
